# Patent US10111854B2, “Synthesis and use of amine-containing flavonoids as potent anti-leishmanial agents” (The Hong Kong Polytechnic University, priority 2014, dated 2018)
# Read-outs that look alike come from different tables or passages of the source.
# Assays:
# [1] = system: amastigotes (L. amazonensis LV78, L. braziliensis UA847, L. donovani HU3, L. donovani 39); experiment: Anti-amastigote activity, strain not given; format: cell-based; details: strain not specified; visceral and cutaneous Leishmania; read-out: IC50 against amastigotes
# Method in brief: (§1)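 Mouse peritoneal elicited macrophages were infected with late-log promastigotes (20:1, overnight or 24 hr, 37° C). Infected cells were then exposed to compound for 72 hours at 37° C. Giemsa-stained amastigotes per 100 macrophages, plus percentage of infected macrophages, were counted, and IC50 values were derived.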
# [2] = system: promastigotes (L. amazonensis LV78, L major FV1, L. donovani HU3, L. donovani 39); experiment: Anti-promastigote activity, strain not given; format: cell-based; details: Leishmania amazonensis; strain not specified; read-out: IC50 against promastigotes
# Protocol: Anti-promastigote activity was determined according to previous procedures (1) by Cell Titer 96® Aqueous Assay (Promega) that employed a tetrazolium compound. Promastigotes were seeded into 96-well flat bottom microtiter plate at 1×10^5 cells per well in a final volume of 100 μL medium and incubated with a series of concentrations of synthetic FM. Parasites were incubated at 27° C. for 72 hours. After 72 hours of incubation, 10 μL of MTS:PMS mixture [MTS:2-(4,5-Dimethylthiazol-2-yl-)-5-[3-(carboxymethoxy)phenyl]-2-(4-sulfophenyl)-2H-tetrazolium); PMS: phenazine methosulfate both purchased from Sigma] was added into each well of microtiter plate. The plate was then incubated at 27° C. for 4 hours for color development. After 4 hours of incubation, the OD values were determined at 490 nm using automatic microtiter plate reader (Bio-Rad).
# (§2) IC50 values of known antileishmanials and the amine-containing flavonoid monomers of the present invention to promastigotes (L. amazonensis LV78, L major FV1, L. donovani HU3, L. donovani 39), macrophages (Raw 264.7 and PEM) and mouse fibroblast (L929) were determined. The anti-promastigotes activities and cytotoxicity of the amine-containing flavonoid monomers of the invention are shown in Table 1.
# [3] = Preliminary oral bioavailability, single time point plasma concentration oral vs i.v.; format: in vivo, Balb/c mice; details: hydrochloride salt in saline, 30 minutes, dose-normalized
# Protocol: FM01.HCl and FM05.HCl were administered to Balb/c mice via intravenous and passive oral administration. The blood plasma was collected at 30 minutes for LC-MSMS analysis and used for preliminary oral bioavailability screening. The corresponding plasma concentration was normalized by the administered dose for oral bioavailability calculation.
# FM01 and FM05 hydrochloride salt was dissolved in saline and administered to Balb/c mice either orally or i.v. Plasma level of FM01 and FM05 was determined 30 minutes later by LC-MS and their identity confirmed by LC-MS/MS. Plasma concentration from oral feeding was divided by that obtained from i.v. administration. […] In these preliminary studies, the ratios were 45% for FM01 and 64% for FM05 (FIG. 3).
# [4] = system: L. amazonensis LV78 amastigotes; experiment: Anti-amastigote activity in infected PEM, L. amazonensis LV78; format: cell-based; details: for Selective index (a)/(b): IC50 RAW264.7 over IC50 L. amazonensis LV78 amastigotes; for IC50: Leishmania amazonensis, 72 h, infected PEM, 3 days, Giemsa
# Method in brief: as §1
# [5] = system: L. amazonensis LV78 promastigotes; experiment: Anti-promastigote activity (MTS assay), L. amazonensis LV78; format: cell-based; details: Leishmania amazonensis, 72 hours
# Method in brief: (§3)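 Promastigotes (1×10^5 per well) in Schneider's medium pH 6.9 with 10% FBS, exposed to serial compound concentrations for 72 h at 27 °C. Viability by MTS/PMS reduction over 4 h, OD 490 nm; IC50 derived.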
# [6] = system: L. donovani Ld39 amastigotes (SSG-resistant); experiment: Anti-amastigote activity in infected PEM, L. donovani Ld39; format: cell-based; details: for IC50: Leishmania donovani, 72 h, infected PEM, 3 days, Giemsa, SSG-resistant; for Selective index (a)/(c): IC50 RAW264.7 over IC50 L. donovani Ld39 amastigotes
# Method in brief: as §1
# [7] = system: L. donovani Ld39 promastigotes; experiment: Anti-promastigote activity (MTS assay), L. donovani Ld39; format: cell-based; details: Leishmania donovani, 72 hours
# Method in brief: as §3
# [8] = system: L. donovani HU3 promastigotes; experiment: Anti-promastigote activity (MTS assay), L. donovani HU3; format: cell-based; details: Leishmania donovani, 72 hours
# Method in brief: as §3
# [9] = system: L. major FV1 promastigotes; experiment: Anti-promastigote activity (MTS assay), L. major FV1; format: cell-based; details: Leishmania major, 72 hours
# Method in brief: as §3
# [10] = system: L. donovani HU3 amastigotes; experiment: Anti-amastigote activity in infected PEM, L. donovani HU3; format: cell-based; details: for IC50: Leishmania donovani, 72 h, infected PEM, 3 days, Giemsa, SSG-sensitive
# Method in brief: as §1
# [11] = system: L. braziliensis UA847 amastigotes; experiment: Anti-amastigote activity in infected PEM, L. braziliensis UA847; format: cell-based; details: Leishmania braziliensis, 72 h, 3 days, Giemsa, read-out: Anti-amastigote activity IC50, L. baziliensis UA847
# Protocol: Mouse peritoneal elicited macrophages (PEM) were obtained as previously described (2). A round cover slip (12 mm in diameter) was placed into each well of 24-well culture plate. Mouse PEM were resuspended in supplemented DMEM media containing 10% heat inactivated FBS (v/v), 100 U/mL penicillin and 100 μg/mL streptomycin and seeded into each well at a cell density of 1×10^5 cells per 500 μL. Macrophages were allowed to attach overnight. Non-adherent cells were removed by gentle washing with un-supplemented DMEM media twice. Adherent macrophages were infected with late-log promastigotes at a parasite-to-macrophage ratio of 20:1 overnight at 37° C. with 5% CO2. Non-internalized promastigotes were removed by washing twice with un-supplemented DMEM media. Infected macrophages were further incubated in 500 μL of supplemented DMEM media in the presence or absence of FM for 72 hours at 37° C. After incubation, cover slips were stained with Giemsa and the percentage of macrophages infected and number of amastigotes per 100 macrophages was enumerated.
# PEM cells were infected with late-log promastigotes (L. amazonensis LV78, L. braziliensis UA847, L. donovani HU3, L. donovani 39) for 24 hr at 37° C. Infected macrophages were then treated with various antileishmanials and incubated for 3 days at 37° C. After 3 days, the cover slips were stained with Giemsa. The number of amastigotes per 100 macrophages were determined and used to calculate IC50 values.
# [12] = Cytotoxicity, L929 fibroblasts; format: cell-based, mouse; details: mouse
# Protocol: as §2
# [13] = Pharmacokinetics of FM05 hydrochloride salt, oral; format: in vivo, Balb/c mice; details: male, Balb/c, mouse, plasma, 42 mg/kg, oral, saline; for half-life: po
# Protocol: Based on the result of the preliminary in vivo study, FM05 hydrochloride salt was selected for further investigation. FM05 hydrochloride salt was dissolved in saline at 4 mg/ml and administered to male balb/c at 42 mg/kg. Blood plasma samples were collected at various time points for pharmacokinetics analysis (n=2 to 3 for each time point).
# [14] = Cytotoxicity, peritoneal elicited macrophages (PEM); format: cell-based, mouse; details: mouse, peritoneal elicited macrophages (PEM), peritoneal elicited macrophages; read-out: Cytotoxicity IC50, PEM
# RAW264.7 cells = experiment: Reactive oxygen species (ROS) level, DCFDA, RAW264.7; format: cell-based, murine
# Protocol: (§4) 50,000 RAW264.7 were seeded in each well of black 96-well plates overnight. Next day, RAW264.7 cells were pre-loaded with 10 μM dichlorofluorescein diacetate (DCFDA) (Abcam) for 1 hr at 37° C. with 5% CO2. A control of non-DCFDA stained cells was also included. The DCFDA-contained supplemented DMEM media was removed. The cells were re-suspended with 10 μM or 30 μM of respective tested compounds and positive control, tert-butyl hydroperoxide. In Leishmania, 1×10^7 promastigotes were also pre-loaded with 10 μM DCFDA at 27° C. for 1 hr. After removing the DCFDA-contained media, the promastigotes were seeded into black 96-well plate and incubated with 30 μM of respective compounds or positive control. The ROS level was determined at different periods of time including 2, 4, 6, 8, 20, 46 and 72 hr using microplate reader (excitation: 485 nm and emission: […]).
# (§5) The ROS levels in both macrophage RAW264.7 and L. amazonensis promastigotes was measured by dichlorofluorescein diacetate (DCFDA) dye which is permeable to the cells. With oxidative stress, DCFDA would be oxidized to fluorescent DCF which is an indicator of intracellular ROS level. RAW cells or L. amazonensis promastigotes were pre-loaded with 10 μM of DCFDA for 1 hr, washed and exposed to 39, FM09, pentamidine and amphotericin B for different period of time (2, 4, 6, 8, 20, 46 and 72 hr). The fluorescence level was measured at the 520 nm using 485 nm as an excitation wavelength. 0.1% DMSO or 0.3% DMSO was used as a solvent control. The fluorescent value has been subtracted from non-DCFDA stained cells. The values were presented as mean±standard error of mean.
# [15] = system: L. amazonensis LV78 promastigotes; experiment: Reactive oxygen species (ROS) level, DCFDA, promastigotes; format: cell-based; details: 30 μM
# Protocol: as §4, §5
# [16] = Cytotoxicity, RAW264.7 macrophages; format: cell-based; details: mouse, RAW264.7 macrophage cells; murine macrophages RAW264.7
# Protocol: Promastigotes of visceral L. donovani Ld39 and LdHU3, and cutaneous L. amazonensis LV78, L. braziliensis UA847 and L. major FV1 were employed in the study. All strains were cultured in Schneider's Drosophila Medium (Invitrogen), pH 6.9 supplemented with 10% (v/v) heat inactivated fetal bovine serum (Hyclone) with 4 mM glutamine (Sigma) and 25 μg/mL gentamicin solution (Invitrogen) at 27° C. for 4 days. RAW264.7 cells were cultured in supplemented DMEM media with 10% heat inactivated FBS and 100 U/mL penicillin and 100 μg/mL of streptomycin. They were maintained at 37° C. in a humidified atmosphere with 5% CO2. The cells were split constantly after a confluent monolayer has been formed. The cells were harvested by a cell scraper.
# as §2
Compound,IC50 [1],IC50 [2],Ratio of plasma concentration from oral feeding to i.v. administration [3],Selective index (a)/(b) [4],IC50 [4],IC50 [5],IC50 [6],IC50 [7],IC50 [8],IC50 [9],IC50 [10],IC50 [11],IC50 [12],Selective index (a)/(c) [6],further results
"O=c1cc(-c2ccc(OCCN3CCN(Cc4ccncc4)CC3)cc2)oc2ccccc12 [FM01, 2-(4-(2-(4-(pyridin-4-ylmethyl)piperazin-1-yl)ethoxy)phenyl)-4H-chromen-4-one]",< 5 µM,< 5 µM,45%,28.8,1.8 ± 0.6 µM,6 ± 1.8 µM,> 10 µM,0.7 ± 0.1 µM,1.2 ± 0.3 µM,5.6 ± 1 µM,> 9 µM,8.4 µM,> 33 µM,–,–
"O=c1cc(-c2ccc(OCCC3CCN(Cc4ccncc4)CC3)cc2)oc2ccccc12 [FM05, 2-(4-(2-(1-(pyridin-4-ylmethyl)piperidin-4-yl)ethoxy)phenyl)-4H-chromen-4-one]",< 5 µM,< 5 µM,64%,–,4.1 ± 0.9 µM,5.1 ± 1 µM,> 10 µM,0.3 ± 0.1 µM,0.4 ± 0.1 µM,3.9 ± 0.8 µM,3.5 µM,–,> 100 µM,<3.7,half-life ([13]; read-out: Half-life (Distribution and absorption)): 0.417 h; half-life ([13]; read-out: Half-life (Elimination)): 3.37 h; Cmax [13]: 313 ng/mL; Tmax [13]: 2 h; Selective index (a)/(b) ([10]; IC50 RAW264.7 over IC50 L. donovani HU3 amastigotes): 10.5
N=C(N)c1ccc(OCCCCCOc2ccc(C(=N)N)cc2)cc1 [Pentamidine],–,–,–,1.9,15.7 ± 5.2 µM,15.7 ± 5.2 µM,> 30 µM,5.3 ± 0.9 µM,–,17.8 ± 2.2 µM,–,1.1 ± 0.1 µM,–,<1,"IC50 [14]: 30.4 ± 11 µM; RAW264.7 ROS Level, Relative fold (RF) (RAW264.7 cells; 10 μM, 2 hr): 0.9 fold; RAW264.7 ROS Level, Relative fold (RF) (RAW264.7 cells; 10 μM, 4 hr): 0.9 fold; RAW264.7 ROS Level, Relative fold (RF) (RAW264.7 cells; 10 μM, 6 hr): 0.9 fold; RAW264.7 ROS Level, Relative fold (RF) (RAW264.7 cells; 10 μM, 8 hr): 0.8 fold; RAW264.7 ROS Level, Relative fold (RF) (RAW264.7 cells; 10 μM, 20 hr): 0.8 fold; ROS induction in macrophages (RAW264.7 cells; 10 μM, RAW264.7): No ROS induction; RAW264.7 ROS Level, Relative fold (RF) (RAW264.7 cells; 30 μM, 2 hr): 1.1 fold; RAW264.7 ROS Level, Relative fold (RF) (RAW264.7 cells; 30 μM, 4 hr): 1.2 fold; RAW264.7 ROS Level, Relative fold (RF) (RAW264.7 cells; 30 μM, 6 hr): 1.1 fold; RAW264.7 ROS Level, Relative fold (RF) (RAW264.7 cells; 30 μM, 20 hr): 0.9 fold; RAW264.7 ROS Level, Relative fold (RF) (RAW264.7 cells; 30 μM, 46 hr): 0.9 fold; L. amazon LV78 promastigote ROS Level, Relative fold (RF) ([15]; 2 hr): 1.3 fold; L. amazon LV78 promastigote ROS Level, Relative fold (RF) ([15]; 4 hr): 1.4 fold; L. amazon LV78 promastigote ROS Level, Relative fold (RF) ([15]; 6 hr): 1.5 fold; L. amazon LV78 promastigote ROS Level, Relative fold (RF) ([15]; 20 hr): 1.8 fold; L. amazon LV78 promastigote ROS Level, Relative fold (RF) ([15]; 46 hr): about 2.6 fold; L. amazon LV78 promastigote ROS Level, Relative fold (RF) ([15]; 46 hr, listed as pentamidine): 2.6 fold; L. amazon LV78 promastigote ROS Level, Relative fold (RF) ([15]; 72 hr): ~3.4 fold; IC50 [16]: 30 ± 5 µM"
